Patent US6335306B1, “Thermosensitive recording material of heat fixing type and method of fixing the same” (Oji Paper Co., Ltd., priority 1998, dated 2002)
Where a name gives a salt, the structure may show the parent alone.

Experiments:
[1] = log P, OECD Chemical Test Guideline No. 117, partition coefficient; details: for log P: OECD Guideline No. 117
Source text: The log P in the present invention is a value determined according to OECD Test, Chemical Test Guideline No. 117, Partition Coefficient; edited by Chemical Product Examination Association). The log P is the logarithm of the partition coefficient P. The higher the value of the partition coefficient, the higher the hydrophobicity; and the lower thereof, the higher the hydrophilicity.

[2] = Color Developer Test Method: solvent resistance of the color image, dioctyl phthalate (Mdd); type: physicochemical; details: colored portion coated with dioctyl phthalate, wiped, left standing 0.5 hour, Macbeth RD-914
Protocol: (§1) Thermosensitive recording paper sheet is prepared by a process which will be described below.
(§2) The above-described composition is pulverized with a paint shaker to an average particle diameter of about 1 μm.
(§3) The above-described composition is pulverized with a paint shaker to an average particle diameter of not larger than 1 μm.
(§4) The above-described composition is pulverized with a paint shaker to an average particle article diameter of not larger than 1 μm.
(§5) A coating liquid is obtained by mixing 60 parts of the dispersion A, 240 parts of the dispersion B, 80 parts of the dispersion C, and 90 parts of 10% aqueous polyvinyl alcohol solution under stirring. The coating liquid thus obtained is applied to the support so that the amount of the coating after drying would be 8.0 g/m^2 to form a thermosensitive color image-forming layer, and thereby to obtain a thermosensitive recording paper.
(§6) The sample thus obtained is printed with a coloring tester (THPMD; a product of Ohkura Electric Co., Ltd.) under conditions comprising a printing voltage of 21.7 V and printing pulse of 1.0 ms. The color density of the printed parts is determined with a Macbeth Reflection Color Density Tester RD-914 (a product of Macbeth).
(§7) The colored portion of the thermosensitive recording material thus obtained in (5) is coated with dioctyl phthalate or salad oil, which is then removed by wiping with Klinex, followed by leaving it for standing for 0.5 hour and measuring the density of the printed parts is determined with a Macbeth Reflection Color Density Tester RD-914 (a product of Macbeth).
(§8) The solvent resistance of the color image formed by using the color developer can be evaluated based on the Macbeth density (hereinafter referred to as “Mdd”) of 0.2 or higher, preferably 0.4 or higher according to the Color Developer Test Method as stated above wherein dioctyl phthalate is used. The solvent resistance of the color image formed using the color developer can be evaluated based on the Macbeth density (hereinafter referred to as “Mds”) of 0.5 or higher, preferably 0.6 or higher according to the Color Developer Test Method as stated above wherein salad oil is used.

[3] = Color Developer Test Method: solvent resistance of the color image, salad oil (Mds); type: physicochemical; details: colored portion coated with salad oil, wiped, left standing 0.5 hour; Macbeth RD-914
Protocol: as §1, §2, §3, §4, §5, §6, §7, §8

[4] = n-octanol/water (OECD Test Guideline 117, HPLC method)

Q: For `Cc1ccc(CCc2ccc(C)c(C)c2)cc1C` [1,2-bis(3,4-dimethylphenyl)ethane], which chromatographic logP ([1]; octanol/water) is on record?
A: 7.8

Q: For `Cc1cccc(OCCOc2cccc(C)c2)c1` [1,2-bis(m-tolyloxy)ethane], which chromatographic logP ([1]; n-octanol/water) is on record?
A: 5

Q: For `c1ccc(OCCOc2ccccc2)cc1` [1,2-diphenoxyethane], which chromatographic logP [1, 4] is on record?
A: 3.6

Q: With `Cc1ccc(S(=O)(=O)NC(=O)Nc2ccc(Oc3cccc(Oc4ccc(NC(=O)NS(=O)(=O)c5ccc(C)cc5)cc4)c3)cc2)cc1` [1,3-bis(4′-(p-toluenesulfonylaminocarbonylamino)phenyloxy)benzene] as the compound, how does the “Mdd (Macbeth density of the printed part after coating with dioctyl phthalate)” value [2] read?
A: 1.0

Q: Which “Mds (Macbeth density of the printed part after coating with salad oil)” value [3] does the source give for `Cc1ccc(S(=O)(=O)NC(=O)Nc2cccc(NC(=O)NS(=O)(=O)c3ccc(C)cc3)c2)cc1` [1,3-bis(p-toluenesulfonylaminocarbonylamino)benzene] here?
A: 1.2

Q: With `Cc1ccc(S(=O)(=O)NC(=O)Nc2ccc(NC(=O)NS(=O)(=O)c3ccc(C)cc3)cc2)cc1` [1,4-bis(p-toluenesulfonylaminocarbonylamino)benzene] as the compound, how does the “Mds (Macbeth density of the printed part after coating with salad oil)” value [3] read?
A: 0.84

Q: With `Cc1ccc(Oc2ccc(Oc3ccc(C)cc3)cc2)cc1` [1,4-bis(p-tolyloxy)benzene] as the compound, how does the chromatographic logP ([1]; n-octanol/water) read?
A: 3.1

Q: Which “Mds (Macbeth density of the printed part after coating with salad oil)” value [3] does the source give for `Cc1ccc(S(=O)(=O)NC(=O)Nc2cccc3c(NC(=O)NS(=O)(=O)c4ccc(C)cc4)cccc23)cc1` [1,5-bis(p-toluenesulfonylaminocarbonylamino)naphthalene] here?
A: 1.05

Q: For `Cc1ccc(S(=O)(=O)NC(=O)Nc2cccc3cccc(NC(=O)NS(=O)(=O)c4ccc(C)cc4)c23)cc1` [1,8-bis(p-toluenesulfonylaminocarbonylamino)naphthalene], which “Mds (Macbeth density of the printed part after coating with salad oil)” value [3] is on record?
A: 0.73

Q: Which chromatographic logP ([1]; n-octanol/water) does the source give for `c1ccc(OCCOc2ccc3ccccc3c2)cc1` [1-phenoxy-2-β-naphthoxyethane] here?
A: 5.2

Q: With `CC(C)(c1ccc(O)cc1)c1ccc(O)cc1` [2,2-bis(4-hydroxyphenyl)propane, reference compound] as the compound, how does the “Mdd (Macbeth density of the printed part after coating with dioctyl phthalate)” value [2] read?
A: 0.1

Q: With `O=S(=O)(c1ccccc1)c1ccc(O)c(S(=O)(=O)c2ccccc2)c1` [2,4-bis(phenylsulfonyl)phenol] as the compound, how does the “Mds (Macbeth density of the printed part after coating with salad oil)” value [3] read?
A: 0.6

Q: For `Cc1ccc(S(=O)(=O)NC(=O)Nc2cccc(S(=O)(=O)c3cccc(NC(=O)NS(=O)(=O)c4ccc(C)cc4)c3)c2)cc1` [3,3′-bis(p-toluenesulfonylaminocarbonylamino)diphenylsulfone], which “Mdd (Macbeth density of the printed part after coating with dioctyl phthalate)” value [2] is on record?
A: 0.63

Q: Which “Mdd (Macbeth density of the printed part after coating with dioctyl phthalate)” value [2] does the source give for `Cc1ccc(S(=O)(=O)NC(=O)Nc2ccc(Oc3cccc(NC(=O)NS(=O)(=O)c4ccc(C)cc4)c3)cc2)cc1` [3,4′-bis(p-toluenesulfonylaminocarbonylamino)diphenyl ether] here?
A: 0.93

Q: And the “Mdd (Macbeth density of the printed part after coating with dioctyl phthalate)” value ([2]; listed as 3,4′-bis(p-toluenesulfonylaminocarbonylamino)diphenyl ether)?
A: 1.0

Q: For `O=C(Nc1ccc(Cc2ccc(NC(=O)NS(=O)(=O)c3cccc4ccccc34)cc2)cc1)NS(=O)(=O)c1cccc2ccccc12` [4,4′-bis(1-naphthalenesulfonylaminocarbonylamino) diphenyl methane], which “Mds (Macbeth density of the printed part after coating with salad oil)” value [3] is on record?
A: 0.5

Q: Which “Mdd (Macbeth density of the printed part after coating with dioctyl phthalate)” value [2] does the source give for `O=C(Nc1ccc(Cc2ccc(NC(=O)NS(=O)(=O)c3ccccc3)cc2)cc1)NS(=O)(=O)c1ccccc1` [4,4′-bis(benzenesulfonylaminocarbonylamino)diphenyl methane] here?
A: 0.8

Q: With `Cc1ccccc1S(=O)(=O)NC(=O)Nc1ccc(Cc2ccc(NC(=O)NS(=O)(=O)c3ccccc3C)cc2)cc1` [4,4′-bis(o-toluenesulfonylaminocarbonylamino)diphenyl methane] as the compound, how does the “Mdd (Macbeth density of the printed part after coating with dioctyl phthalate)” value [2] read?
A: 1.0

Q: With `Cc1ccc(S(=O)(=O)NC(=O)Nc2ccc(Oc3ccc(NC(=O)NS(=O)(=O)c4ccc(C)cc4)cc3)cc2)cc1` [4,4′-bis(p-toluenesulfonylaminocarbonylamino)diphenyl ether] as the compound, how does the “Mdd (Macbeth density of the printed part after coating with dioctyl phthalate)” value [2] read?
A: 1.0

Q: With `Cc1ccc(S(=O)(=O)NC(=O)Nc2ccc(Sc3ccc(NC(=O)NS(=O)(=O)c4ccc(C)cc4)cc3)cc2)cc1` [4,4′-bis(p-toluenesulfonylaminocarbonylamino)diphenyl sulfide] as the compound, how does the “Mdd (Macbeth density of the printed part after coating with dioctyl phthalate)” value [2] read?
A: 0.96

Q: With `Cc1ccc(S(=O)(=O)NC(=O)Nc2ccc(Cc3ccc(NC(=O)NS(=O)(=O)c4ccc(C)cc4)cc3)cc2)cc1` [4,4′-bis(p-toluenesulfonylaminocarbonylamino)diphenylmethane] as the compound, how does the “Mdd (Macbeth density of the printed part after coating with dioctyl phthalate)” value [2] read?
A: 1.0

Q: Which “Mdd (Macbeth density of the printed part after coating with dioctyl phthalate)” value [2] does the source give for `Cc1ccc(S(=O)(=O)NC(=O)Nc2ccc(S(=O)(=O)c3ccc(NC(=O)NS(=O)(=O)c4ccc(C)cc4)cc3)cc2)cc1` [4,4′-bis(p-toluenesulfonylaminocarbonylamino)diphenylsulfone] here?
A: 0.81

Q: With `C=CCOc1ccc(S(=O)(=O)c2ccc(OCC=C)cc2)cc1` [4,4′-diallyloxydiphenylsulfone] as the compound, how does the “log P” value [1] read?
A: 3.3

Q: With `COc1ccc(OCCOc2ccc(C(=O)O)c(O)c2)cc1` [4-(2-(p-methoxyphenyloxy)ethyloxy)salicylic acid] as the compound, how does the “Mdd (Macbeth density of the printed part after coating with dioctyl phthalate)” value [2] read?
A: 0.5

Q: Which chromatographic logP ([1]; n-octanol/water) does the source give for `COc1ccc(OCCOCCOc2ccc(OC)cc2)cc1` [bis(2-(4-methoxyphenoxy)ethyl) ether] here?
A: 2.9

Q: Which “log P” value [1] does the source give for `O=C(CCCCC(=O)OCc1ccccc1Cl)OCc1ccccc1Cl` [di-o-chlorobenzyl adipate] here?
A: 5.8

Q: With `O=C(OCc1ccccc1)C(=O)OCc1ccccc1` [dibenzyl oxalate] as the compound, how does the chromatographic logP [1, 4] read?
A: 3.1

Q: Which chromatographic logP ([1]; n-octanol/water) does the source give for `O=C(OCc1ccccc1)c1ccc(C(=O)OCc2ccccc2)cc1` [dibenzyl terephthalate] here?
A: 5.7

Q: With `O=S(=O)(c1ccccc1)c1ccccc1` [diphenylsulfone] as the compound, how does the chromatographic logP [1, 4] read?
A: 1.5

Q: Which chromatographic logP ([1]; octanol/water) does the source give for `c1ccc(-c2cccc(-c3ccccc3)c2)cc1` [m-terphenyl] here?
A: 6.16

Q: For `CC(=O)CC(=O)Nc1ccccc1Cl` [o-chloroacetoacetoanilide], which chromatographic logP ([1]; n-octanol/water) is on record?
A: 0.2

Q: With `c1ccc(Cc2ccc(-c3ccccc3)cc2)cc1` [p-benzylbiphenyl] as the compound, how does the chromatographic logP ([1]; n-octanol/water) read?
A: 6.3

Q: With `Cc1ccc(OS(=O)(=O)c2c(C)cc(C)cc2C)cc1` [p-tolyl mesitylenesulfonate] as the compound, how does the chromatographic logP ([1]; n-octanol/water) read?
A: 3.1

Q: Which chromatographic logP ([1]; n-octanol/water) does the source give for `O=C(Oc1ccccc1)c1ccc2ccccc2c1O` [phenyl 1-hydroxy-2-naphthoate] here?
A: 5.1

Q: And the chromatographic logP [1, 4]?
A: 5.1

Q: For `Cc1ccc(S(=O)(=O)Oc2ccccc2)cc1` [phenyl p-toluenesulfonate], which chromatographic logP [1, 4] is on record?
A: 3.1
